According to patent US20240409585A1, “MACROCYCLIC IMMUNOMODULATORS” (priority 2021, published 2024):
Numbered stars: 1 amine (or outer) side, 2 acyl side, 3 side chain; on linkers, the order of the positions; unused ones are H or OH. Bridge positions count the residues as written; N and C are the ends. Square brackets hold non-standard residues; d marks the D form. Peptide text beside a SMILES is read from it. * marks the point of attachment. Bip(4'-NHAc) = CC(=O)Nc1ccc(-c2ccc(C[C@H](N)C(=O)O)cc2)cc1; Phe(3-CF3) = N[C@@H](Cc1cccc(C(F)(F)F)c1)C(=O)O; Ala(morpholin-4-yl) = N[C@@H](CN1CCOCC1)C(=O)O; Phe(4-CONH2) = NC(=O)c1ccc(C[C@H](N)C(=O)O)cc1; Phe(4-COOH) = N[C@@H](Cc1ccc(C(=O)O)cc1)C(=O)O; Bip = N[C@@H](Cc1ccc(-c2ccccc2)cc1)C(=O)O; Abu(3R-NH2) = C[C@@H](N)[C@H](N)C(=O)O; Phe(3-Me) = Cc1cccc(C[C@H](N)C(=O)O)c1; Abu(3S-NH2) = C[C@H](N)[C@H](N)C(=O)O; Propanoyl(3,3,3-F3) = O=C(CC(F)(F)F)*; Glutaryl = O=C(CCCC(=O)[*:2])[*:1]; Val(3-OH) = CC(C)(O)[C@H](N)C(=O)O; hPhe = N[C@@H](CCc1ccccc1)C(=O)O; Cha = N[C@@H](CC1CCCCC1)C(=O)O; Suc = O=C(CCC(=O)[*:2])[*:1]; Carboxymethyl = O=C(O)C*; NMeA = CN[C@@H](C)C(=O)O; Orn = NCCC[C@H](N)C(=O)O; Dab = NCC[C@H](N)C(=O)O; Dap = NC[C@H](N)C(=O)O

molecular target: T1, Alexa fluor-647 labeled human PD-L1-Ig binding to Jurkat cell line over-expressing human PD-1 (Homo sapiens, UniProt Q15116); assay: Jurkat-PD-1 Cell Binding High-Content Screening Assay (CBA): Method 3 (Alexa fluor-647 labeled PD-L1-Ig); conditions: Jurkat-PD-1 cells, Alexa fluor-647 labeled PD-L1-Ig 177 nM; head μM; read-out: CBA Method 3 μM
T1 construct: expressed in transfected cells; host or cells: Jurkat
T1 sequence (Q15116 25-288): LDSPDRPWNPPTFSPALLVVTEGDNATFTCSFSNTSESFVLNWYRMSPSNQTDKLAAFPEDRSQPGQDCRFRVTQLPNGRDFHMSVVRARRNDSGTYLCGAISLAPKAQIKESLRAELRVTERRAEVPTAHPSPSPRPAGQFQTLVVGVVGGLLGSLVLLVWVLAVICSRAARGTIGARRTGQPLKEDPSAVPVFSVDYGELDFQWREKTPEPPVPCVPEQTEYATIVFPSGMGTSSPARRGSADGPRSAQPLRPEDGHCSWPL
In short: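 Readout by high-content imaging of PFA-fixed, Hoechst-stained cells after 1 h with 177 nM (final) Alexa fluor-647 PD-L1-Ig. Compound was added first to hPD-1 Jurkat cells in RPMI plus 10% FCS for 2 h at 37 °C.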

Row | IC50 [µM] | Structure (SMILES)
1 | 0.01 | CC(=O)Nc1ccc(-c2ccc(C[C@@H]3NC(=O)[C@H](Cc4cccc(C)c4)NC(=O)[C@H](CC(=O)O)NC(=O)[C@H](Cc4ccc(C(=O)O)cc4)NC(=O)[C@H](CC4CCCCC4)NC(=O)CSC[C@@H](C(=O)N[C@@H](CCN)C(N)=O)NC(=O)[C@H](CCC(=O)O)NC(=O)[C@H](C(C)C)NC(=O)[C@H](CC4CCCCC4)NC(=O)[C@H](CCN)NC(=O)[C@@H](CC(C)C)NC(=O)[C@H](C)N(C)C(=O)[C@H](CCC(N)=O)NC(=O)[C@H](Cc4ccc(-c5ccccc5)cc4)NC3=O)cc2)cc1 [Example 5203] ({CH2CO}-[Cha][Phe(4-COOH)]D[Phe(3-Me)][Bip(4'-NHAc)][Bip]Q[NMeA][dL][Dab][Cha]VEC[Dab]-NH2; thioether N-14)
2 | 0.16 | Cc1cccc(C[C@@H]2NC(=O)[C@H](CC(=O)O)NC(=O)[C@H](Cc3ccc(OCC(=O)O)cc3)NC(=O)[C@H](CC3CCCCC3)NC(=O)CSC[C@@H](C(=O)N[C@@H](CCN)C(N)=O)NC(=O)[C@H](CCCN)NC(=O)[C@H](C(C)C)NC(=O)[C@H](CCN)NC(=O)[C@H](CCN)NC(=O)[C@@H](CC(C)C)NC(=O)[C@H](C)N(C)C(=O)[C@H](CCC(N)=O)NC(=O)[C@H](Cc3ccc(-c4ccccc4)cc3)NC(=O)[C@H](Cc3ccc(C(=O)O)cc3)NC2=O)c1 [Example 5205] ({CH2CO}-[Cha]Y(Carboxymethyl)D[Phe(3-Me)][Phe(4-COOH)][Bip]Q[NMeA][dL][Dab][Dab]V[Orn]C[Dab]-NH2; thioether N-14)
3 | 0.03 | CC(C)C[C@H]1NC(=O)[C@H](C)N(C)C(=O)[C@H](Cc2ccc(C(=O)O)cc2)NC(=O)[C@H](Cc2ccc(-c3ccccc3)cc2)NC(=O)[C@H](CCc2ccccc2)NC(=O)[C@H](Cc2cccc(C(F)(F)F)c2)NC(=O)[C@H](CC(=O)O)NC(=O)[C@H](Cc2ccc(C(=O)O)cc2)NC(=O)[C@H](CN2CCOCC2)NC(=O)CSC[C@@H](C(=O)N[C@@H](CCN)C(N)=O)NC(=O)[C@H](CNC(=O)CC(F)(F)F)NC(=O)[C@H](C(C)C)NC(=O)[C@H](CC2CCCCC2)NC(=O)[C@H](CCN)NC1=O [Example 5207] ({CH2CO}-[Ala(morpholin-4-yl)][Phe(4-COOH)]D[Phe(3-CF3)][hPhe][Bip][Phe(4-COOH)][NMeA][dL][Dab][Cha]V[Dap](Propanoyl(3,3,3-F3))C[Dab]-NH2; thioether N-14)
4 | 0.02 | CC(C)C[C@H]1NC(=O)[C@H](C)N(C)C(=O)[C@H](Cc2ccc(C(=O)O)cc2)NC(=O)[C@H](Cc2ccc(-c3ccccc3)cc2)NC(=O)[C@H](CCc2ccccc2)NC(=O)[C@H](Cc2cccc(C(F)(F)F)c2)NC(=O)[C@H](CC(=O)O)NC(=O)[C@H](Cc2ccc(C(=O)O)cc2)NC(=O)[C@H](CN2CCOCC2)NC(=O)CSC[C@@H](C(=O)N[C@@H](CCN)C(N)=O)NC(=O)[C@H](CNC(=O)CCCC(=O)O)NC(=O)[C@H](C(C)C)NC(=O)[C@H](CC2CCCCC2)NC(=O)[C@H](CCN)NC1=O [Example 5209] ({CH2CO}-[Ala(morpholin-4-yl)][Phe(4-COOH)]D[Phe(3-CF3)][hPhe][Bip][Phe(4-COOH)][NMeA][dL][Dab][Cha]V[Dap](Glutaryl)C[Dab]-NH2; thioether N-14)
5 | 0.14 | CC(C)C[C@H]1NC(=O)[C@H](C)N(C)C(=O)[C@H](Cc2ccc(C(=O)O)cc2)NC(=O)[C@H](Cc2ccc(-c3ccccc3)cc2)NC(=O)[C@H](CCc2ccccc2)NC(=O)[C@H](Cc2cccc(C(F)(F)F)c2)NC(=O)[C@H](CC(=O)O)NC(=O)[C@H](Cc2ccc(C(=O)O)cc2)NC(=O)[C@H](CN2CCOCC2)NC(=O)CSC[C@@H](C(=O)N[C@@H](CCN)C(N)=O)NC(=O)[C@H](CNC(=O)CCC(=O)O)NC(=O)[C@H](C(C)C)NC(=O)[C@H](CC2CCCCC2)NC(=O)[C@H](CCN)NC1=O [Example 5210] ({CH2CO}-[Ala(morpholin-4-yl)][Phe(4-COOH)]D[Phe(3-CF3)][hPhe][Bip][Phe(4-COOH)][NMeA][dL][Dab][Cha]V[Dap](Suc)C[Dab]-NH2; thioether N-14)
6 | 0.33 | CC(C)C[C@H]1NC(=O)[C@H](C)N(C)C(=O)[C@H](CCC(N)=O)NC(=O)[C@H](Cc2ccc(-c3ccccc3)cc2)NC(=O)[C@H](CCc2ccccc2)NC(=O)[C@H](Cc2cccc(C(F)(F)F)c2)NC(=O)[C@H](CC(=O)O)NC(=O)[C@H](Cc2ccc(OCC(=O)O)cc2)NC(=O)[C@H](CC2CCCCC2)NC(=O)CSC[C@@H](C(=O)N[C@@H](CCN)C(N)=O)NC(=O)[C@H](CCC(=O)O)NC(=O)[C@H](C(C)C)NC(=O)[C@H](CC2CCCCC2)NC(=O)[C@H](CCN)NC1=O [Example 5213] ({CH2CO}-[Cha]Y(Carboxymethyl)D[Phe(3-CF3)][hPhe][Bip]Q[NMeA][dL][Dab][Cha]VEC[Dab]-NH2; thioether N-14)
7 | 0.03 | Cc1cccc(C[C@@H]2NC(=O)[C@H](CC(=O)O)NC(=O)[C@H](Cc3ccc(OCC(=O)O)cc3)NC(=O)[C@H](CC3CCCCC3)NC(=O)CSC[C@@H](C(=O)N[C@@H](CCN)C(N)=O)NC(=O)[C@H](CCC(=O)O)NC(=O)[C@H](C(C)C)NC(=O)[C@H](CC3CCCCC3)NC(=O)[C@H](CCN)NC(=O)[C@@H](CC(C)C)NC(=O)[C@H](C)N(C)C(=O)[C@H](CCC(N)=O)NC(=O)[C@H](Cc3ccc(-c4ccccc4)cc3)NC(=O)[C@H](CCc3ccccc3)NC2=O)c1 [Example 5214] ({CH2CO}-[Cha]Y(Carboxymethyl)D[Phe(3-Me)][hPhe][Bip]Q[NMeA][dL][Dab][Cha]VEC[Dab]-NH2; thioether N-14)

same assay, conditions: Jurkat-PD-1 cells, Alexa fluor-647 labeled PD-L1-Ig 177 nM; nM; read-out: CBA Method 3

Row | IC50 [µM] | Structure (SMILES)
8 | 0.0062 | Cc1cccc(C[C@@H]2NC(=O)[C@H](CC(=O)O)NC(=O)[C@H](Cc3ccc(C(=O)O)cc3)NC(=O)[C@H](CC3CCCCC3)NC(=O)CSC[C@@H](C(=O)N[C@@H](CCN)C(N)=O)NC(=O)[C@H](CCC(=O)O)NC(=O)[C@H](C(C)C)NC(=O)[C@H](CC3CCCCC3)NC(=O)[C@H](CCN)NC(=O)[C@@H](CC(C)C)NC(=O)[C@H](C)N(C)C(=O)[C@H](Cc3ccc(C(=O)O)cc3)NC(=O)[C@H](Cc3ccc(-c4ccccc4)cc3)NC(=O)[C@H](Cc3ccc(OCC(=O)O)cc3)NC2=O)c1 [Example 5201] ({CH2CO}-[Cha][Phe(4-COOH)]D[Phe(3-Me)]Y(Carboxymethyl)[Bip][Phe(4-COOH)][NMeA][dL][Dab][Cha]VEC[Dab]-NH2; thioether N-14)
9 | 0.0049 | CC(=O)Nc1ccc(-c2ccc(C[C@@H]3NC(=O)[C@H](Cc4cccc(C)c4)NC(=O)[C@H](CC(=O)O)NC(=O)[C@H](Cc4ccc(C(=O)O)cc4)NC(=O)[C@H](CC4CCCCC4)NC(=O)CSC[C@@H](C(=O)N[C@@H](CCN)C(N)=O)NC(=O)[C@H](CCC(=O)O)NC(=O)[C@H](C(C)C)NC(=O)[C@H](CC4CCCCC4)NC(=O)[C@H](CCN)NC(=O)[C@@H](CC(C)C)NC(=O)[C@H](C)N(C)C(=O)[C@H](Cc4ccc(OCC(=O)O)cc4)NC(=O)[C@H](Cc4ccc(-c5ccccc5)cc4)NC3=O)cc2)cc1 [Example 5202] ({CH2CO}-[Cha][Phe(4-COOH)]D[Phe(3-Me)][Bip(4'-NHAc)][Bip]Y(Carboxymethyl)[NMeA][dL][Dab][Cha]VEC[Dab]-NH2; thioether N-14)
10 | 0.0065 | CC(C)C[C@H]1NC(=O)[C@H](C)N(C)C(=O)[C@H](Cc2ccc(C(=O)O)cc2)NC(=O)[C@H](Cc2ccc(-c3ccccc3)cc2)NC(=O)[C@H](CCc2ccccc2)NC(=O)[C@H](Cc2cccc(C(F)(F)F)c2)NC(=O)[C@H](CC(=O)O)NC(=O)[C@H](Cc2ccc(C(=O)O)cc2)NC(=O)[C@H](CN2CCOCC2)NC(=O)CSC[C@@H](C(=O)N[C@@H](CCN)C(N)=O)NC(=O)[C@H](CCC(N)=O)NC(=O)[C@H](C(C)C)NC(=O)[C@H](CC2CCCCC2)NC(=O)[C@H](CCN)NC1=O [Example 5204] ({CH2CO}-[Ala(morpholin-4-yl)][Phe(4-COOH)]D[Phe(3-CF3)][hPhe][Bip][Phe(4-COOH)][NMeA][dL][Dab][Cha]VQC[Dab]-NH2; thioether N-14)
11 | 0.0038 | CC(C)C[C@H]1NC(=O)[C@H](C)N(C)C(=O)[C@H](Cc2ccc(C(N)=O)cc2)NC(=O)[C@H](Cc2ccc(-c3ccccc3)cc2)NC(=O)[C@H](Cc2ccc(C(=O)O)cc2)NC(=O)[C@H](Cc2cccc(C(F)(F)F)c2)NC(=O)[C@H](CC(=O)O)NC(=O)[C@H](Cc2ccc(C(=O)O)cc2)NC(=O)[C@H]([C@H](C)N)NC(=O)CSC[C@@H](C(=O)N[C@@H](CCN)C(N)=O)NC(=O)[C@H](CO)NC(=O)[C@H](C(C)(C)O)NC(=O)[C@H](CC2CCCCC2)NC(=O)[C@H](CCN)NC1=O [Example 5208] ({CH2CO}-[Abu(3S-NH2)][Phe(4-COOH)]D[Phe(3-CF3)][Phe(4-COOH)][Bip][Phe(4-CONH2)][NMeA][dL][Dab][Cha][Val(3-OH)]SC[Dab]-NH2; thioether N-14)
12 | 0.001 | CC(C)C[C@H]1NC(=O)[C@H](C)N(C)C(=O)[C@H](CCC(N)=O)NC(=O)[C@H](Cc2ccc(-c3ccccc3)cc2)NC(=O)[C@H](CCc2ccccc2)NC(=O)[C@H](Cc2cccc(C(F)(F)F)c2)NC(=O)[C@H](CC(=O)O)NC(=O)[C@H](Cc2ccc(OCC(=O)O)cc2)NC(=O)[C@H]([C@@H](C)N)NC(=O)CSC[C@@H](C(=O)N[C@@H](CCN)C(N)=O)NC(=O)[C@H](CCC(=O)O)NC(=O)[C@H](C(C)C)NC(=O)[C@H](CC2CCCCC2)NC(=O)[C@H](CCN)NC1=O [Example 5215] ({CH2CO}-[Abu(3R-NH2)]Y(Carboxymethyl)D[Phe(3-CF3)][hPhe][Bip]Q[NMeA][dL][Dab][Cha]VEC[Dab]-NH2; thioether N-14)
13 | 0.006 | CC(C)C[C@H]1NC(=O)[C@H](C)N(C)C(=O)[C@H](CCC(N)=O)NC(=O)[C@H](Cc2ccc(-c3ccccc3)cc2)NC(=O)[C@H](CCc2ccccc2)NC(=O)[C@H](Cc2cccc(C(F)(F)F)c2)NC(=O)[C@H](CC(=O)O)NC(=O)[C@H](Cc2ccc(OCC(=O)O)cc2)NC(=O)[C@H](CN2CCOCC2)NC(=O)CSC[C@@H](C(=O)N[C@@H](CCN)C(N)=O)NC(=O)[C@H](CCCN)NC(=O)[C@H](C(C)C)NC(=O)[C@H](CC2CCCCC2)NC(=O)[C@H](CCN)NC1=O [Example 5216] ({CH2CO}-[Ala(morpholin-4-yl)]Y(Carboxymethyl)D[Phe(3-CF3)][hPhe][Bip]Q[NMeA][dL][Dab][Cha]V[Orn]C[Dab]-NH2; thioether N-14)
